In the supplement of paper PMC10307832:

Experiments:
Assay in all cases: relative viability (nuclei count vs DMSO), 5 days (fraction); higher = more cells survive
[1] = compound: CC(C)=CC[C@@H](O)C1=CC(=O)c2c(O)ccc(O)c2C1=O [Shikonin] + NC(=O)Nc1cc(-c2cccc(F)c2)sc1C(=O)N[C@H]1CCCNC1 [AZD7762] (partner 0.2 µM)
In short: (§1)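 A single step with final 0.05% Triton X-100, 1% formaldehyde and 1 ug/ml Hoechst fixed the cells and stained nuclei 5 days after treatment. Lung cancer cell lines in 1536-well plates had been treated by pin tool the day after seeding with one drug alone or a fixed anchor-drug dose plus five library-drug doses (not always all listed) in √10 steps, and nuclei were counted on 4× images. Relative viability is the ratio of nuclei in treated wells to nuclei in vehicle wells, taken as the median of duplicate plates.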

[2] = compound: CC(C)N(CCCNC(=O)Nc1ccc(C(C)(C)C)cc1)C[C@H]1O[C@@H](n2ccc3c(N)ncnc32)[C@H](O)[C@@H]1O + Cc1nc(NC(=O)N2CCC[C@H]2C(N)=O)sc1-c1ccnc(C(C)(C)C(F)(F)F)c1 [Alpelisib] (partner 2 µM)
In short: as §1

[3] = compound: CC(C)=CC[C@@H](O)C1=CC(=O)c2c(O)ccc(O)c2C1=O [Shikonin] + Cc1cc(Nc2cc(N3CCN(C)CC3)nc(Sc3ccc(NC(=O)C4CC4)cc3)n2)n[nH]1 [Tozasertib] (partner 0.1 µM)
In short: as §1

[4] = compound: CC(C)=CC[C@@H](O)C1=CC(=O)c2c(O)ccc(O)c2C1=O [Shikonin] + COc1cccc2cc(-c3nc([C@H]4CC[C@H](C(=O)O)CC4)n4ncnc(N)c34)[nH]c12 [OSI-027] (partner 0.5 µM)
In short: as §1

Row | Cell Line | relative viability ([1]; first compound 0.01 µM) | relative viability ([1]; first compound 0.1 µM) | relative viability ([1]; first compound 0.3162 µM) | relative viability ([1]; first compound 1 µM) | relative viability ([2]; first compound 0.08 µM) | relative viability ([2]; first compound 0.253 µM) | relative viability ([2]; first compound 0.8 µM) | relative viability ([2]; first compound 2.53 µM) | relative viability ([2]; first compound 8 µM) | relative viability ([3]; first compound 0.01 µM) | relative viability ([3]; first compound 0.1 µM) | relative viability ([3]; first compound 0.3162 µM) | relative viability ([3]; first compound 1 µM) | relative viability ([4]; first compound 0.01 µM) | relative viability ([4]; first compound 0.1 µM) | relative viability ([4]; first compound 0.3162 µM) | relative viability ([4]; first compound 1 µM)
1 | NCI-H1651 | 0.487 | 0.517 | 0.536 | 0.44 | 0.882 | 0.98 | 0.92 | 0.935 | 1.04 | 0.8 | 0.783 | 0.744 | 0.748 | 0.744 | 0.469 | 0.708 | 0.686
2 | NCI-H1755 | 0.384 | 0.422 | 0.373 | 0.427 | 0.891 | 0.929 | 0.905 | 0.882 | 0.84 | 0.578 | 0.521 | 0.506 | 0.532 | 0.765 | 0.736 | 0.827 | 0.687
3 | NCI-H838 | 0.97 | 1.03 | 0.97 | 1.1 | 0.983 | 0.804 | 1.04 | 1.03 | 0.99 | 0.289 | 0.264 | 0.257 | 0.29 | 0.387 | 0.345 | 0.405 | 0.459
4 | HARA | 0.259 | 0.348 | 0.271 | 0.368 | 0.795 | 0.744 | 0.763 | 0.701 | 0.779 | 0.0977 | 0.0981 | 0.115 | 0.113 | 0.431 | 0.667 | 0.521 | 0.521
5 | NCI-H650 | 0.962 | 1.07 | 1.17 | 0.947 | 0.984 | 1.09 | 1.21 | 1.13 | 0.958 | 0.69 | 0.793 | 0.788 | 0.66 | 0.612 | 0.555 | 0.592 | 0.568
6 | NCI-H2347 | 0.77 | 0.947 | 0.829 | 0.712 | 0.882 | 0.904 | 0.935 | 1.1 | 1 | 0.546 | 0.504 | 0.594 | 0.558 | 0.444 | 0.425 | 0.391 | 0.398
7 | LCLC-97TM1 | 0.286 | 0.188 | 0.227 | 0.362 | 0.251 |  | 0.267 | 0.174 | 0.222 | 0.254 | 0.21 | 0.222 | 0.17 | 0.504 | 0.591 | 0.675 | 0.579
8 | EPLC-272H | 0.194 | 0.265 | 0.241 | 0.176 | 0.95 | 0.912 | 0.856 | 1.03 | 1.03 | 0.226 | 0.215 | 0.249 | 0.191 | 0.271 | 0.274 | 0.279 | 0.259
9 | NCI-H1915 | 0.695 | 0.752 | 0.728 | 0.729 | 1.07 | 1.05 | 0.974 | 1.05 | 0.968 | 0.444 | 0.498 | 0.454 | 0.482 | 0.615 | 0.737 | 0.634 | 0.595
10 | NCI-H3122 | 0.973 | 1.07 | 1.05 | 0.959 | 0.808 | 0.846 | 0.797 | 0.858 | 0.701 | 0.359 | 0.431 | 0.462 | 0.51 | 1.07 | 1.27 | 1.03 | 1.06
11 | NCI-H441 | 1.39 | 0.935 | 1.16 | 1.43 |  | 0.653 | 0.88 | 0.677 | 0.712 | 0.898 | 0.617 | 0.663 | 0.601 | 0.539 | 0.831 | 0.619 | 0.624
12 | NCI-H2170 | 0.912 | 0.737 | 0.975 | 0.905 | 0.736 | 0.762 | 0.82 | 0.815 | 0.908 | 0.68 | 0.494 | 0.695 | 0.739 | 0.729 | 0.695 | 0.782 | 0.777
13 | NCI-H1395 | 0.375 | 0.409 | 0.366 | 0.448 | 1.11 | 0.996 |  | 1.21 | 1.05 | 0.794 | 0.842 | 0.806 | 0.763 | 0.582 | 0.681 | 0.661 | 0.732
14 | NCI-H358 | 0.425 | 0.62 | 0.607 | 0.603 | 0.78 | 0.823 | 0.901 | 0.87 | 0.917 | 0.104 | 0.102 | 0.0979 | 0.0975 | 0.681 | 0.699 | 0.712 | 0.662
15 | PC-3 [JPC-3] | 0.825 | 0.846 | 0.755 | 1 | 1.04 | 1 | 0.896 | 1 | 1.01 | 0.883 | 0.984 | 1.01 | 0.94 | 0.851 | 0.746 | 0.759 | 0.751
16 | CAL-12T | 0.606 | 0.751 | 0.622 | 0.736 | 1.02 | 1.32 | 1.26 | 1 | 1 | 0.322 | 0.294 | 0.325 | 0.432 | 0.658 | 0.936 | 0.546 | 0.488
